Laboratory results from patent US7618990B2, “Oxazolidone derivatives as PR modulators” (Wyeth, priority 2006, dated 2009).

Legend:
[1] = system: alkaline phosphatase activity in T47D cells; assay: Effects of progestins and antiprogestins on alkaline phosphatase activity in T47D cells (antagonist mode); assay type: cell-based; conditions: Homo sapiens, in the presence of 1 nM progesterone, read-out: T47D Alkaline Phosphatase Activity IC50 (nM) or % inhibition; for IC50: 24 h; for inhibition at 3 µM: % inhibition at 3000 nM
Experimental: (1) Effects of Progestins and Antiprogestins on Alkaline Phosphatase Activity in T47D Cells
PURPOSE: To identify progestins or antiprogestins by determining a compound's effect on alkaline phosphatase activity in T47D cells.
Culture Medium: • DMEM:F12 (1:1) (GIBCO, BRL) supplemented with 5% (v/v) charcoal stripped fetal bovine serum (not heat-inactivated), 100 U/mL penicillin, 100 μg/mL streptomycin, and 2 mM the GlutaMax™ reagent (GIBCO, BRL).
Alkaline Phosphatase Assay Buffer: • I. 0.1M Tris-HCl, pH 9.8, containing 0.2% the Triton® X-100 reagent • II. 0.1M Tris-HCl, pH 9.8, containing 4 mM p-nitrophenyl phosphate (Sigma). B. Cell Culture and Treatment:
Frozen T47D cells were thawed in a 37° C. water bath and diluted to 280,000 cells/mL in culture medium. To each well in a 96-well plate (Falcon, Becton Dickinson Labware), 180 μL of diluted cell suspension was added.
Twenty μL of reference or test compounds diluted in the culture medium was then added to each well. When testing for progestin antagonist activity, reference antiprogestins or test compounds were added in the presence of 1 nM progesterone. The cells were incubated at 37° C. in a 5% CO2/humidified atmosphere for 24 h.
NOTE: For high throughput screening, one concentration of each compound was tested at 0.3 μg/mL. Based on an average molecular weight of 300 g/mol for the compounds in the library, the concentration was approximately 1 μM. Subsequently, active compounds were tested in dose response assays to determine EC50 and IC50. C. Alkaline Phosphatase Enzyme Assay:
At the end of treatment, the medium was removed from the plate. Fifty μL of assay buffer I was added to each well. The plates were shaken in a titer plate shaker for 15 min. Then 150 μL of assay buffer II was added to each well. Optical density measurements were taken at 5 min intervals for 30 min at a test wavelength of 405 nm.
For reference and test compounds, a dose response curve was generated for dose (X-axis) vs. the rate of enzyme reaction (slope) (Y-axis). Square root-transformed data was used for analysis of variance and nonlinear dose response curve fitting for both agonist and antagonist modes. Huber weighting was used to down-weight the effects of outliers. EC50 or IC50 values were calculated from the retransformed values. JMP software (SAS Institute, Inc.) was used for both one-way analysis of variance and non-linear dose response analysis in both single dose and dose response studies.
Progesterone and trimegestone were reference progestins and RU486 was the reference antiprogestin. All reference compounds were run in full dose response curves and the EC50 and IC50 values were calculated.

SMILES: O=C1OCC2(CC2)N1c1nc(-c2ccc(Br)cc2)cs1 [Example 24, 4-[4-(4-Bromophenyl)-1,3-thiazol-2-yl]-6-oxa-4-azaspiro[2.4]heptane-5-one]
- IC50 [1]: 292 nM
- melting point: 201 to 202 °C

SMILES: N#Cc1ccc(-c2csc(N3C(=O)OCC34CC4)n2)cc1 [Example 25, 4-[2-(5-oxo-6-oxa-4-azaspiro[2.4]hept-4-yl)-1,3-thiazol-4-yl]benzonitrile]
- IC50 [1]: 21.6 nM
- melting point: 219 to 221 °C

SMILES: O=C1OCCN1c1nc(-c2ccc(Br)cc2)cs1 [Example 28, 3-[4-(4-Bromophenyl)-1,3-thiazol-2-yl]-1,3-oxazolidin-2-one]
- IC50 [1]: 158 nM
- melting point: 197 to 199 °C

SMILES: CCCC1COC(=O)N1c1nc(-c2ccc(Br)cc2)cs1 (stereo not drawn) [Example 29, 3-[4-(4-Bromophenyl)-1,3-thiazol-2-yl]-4-propyl-1,3-oxazolidin-2-one]
- IC50 [1]: 88.8 nM
- melting point: 156 to 157 °C

SMILES: CCCCC1COC(=O)N1c1nc(-c2ccc(Br)cc2)cs1 (stereo not drawn) [Example 30, 3-[4-(4-Bromophenyl)-1,3-thiazol-2-yl]-4-butyl-1,3-oxazolidin-2-one]
- inhibition at 3 µM [1]: 100%
- melting point: 153 to 155 °C

SMILES: CC1CN(c2nc(-c3ccc(Br)cc3)cs2)C(=O)O1 (stereo not drawn) [Example 31, 3-[4-(4-Bromophenyl)-1,3-thiazol-2-yl]-5-methyl-1,3-oxazolidin-2-one]
- IC50 [1]: 68.8 nM
- melting point: 191 to 193 °C

SMILES: CCC1CN(c2nc(-c3ccc(Br)cc3)cs2)C(=O)O1 (stereo not drawn) [Example 32, 3-[4-(4-Bromophenyl)-1,3-thiazol-2-yl]-5-ethyl-1,3-oxazolidin-2-one]
- IC50 [1]: 407 nM
- melting point: 141 to 142 °C

SMILES: O=C1OCCCN1c1nc(-c2ccc(Br)cc2)cs1 [Example 33, 3-[4-(4-Bromophenyl)-1,3-thiazol-2-yl]-1,3-oxazinan-2-one]
- IC50 [1]: 238 nM
- melting point: 225 to 227 °C

SMILES: CC1(C)COC(=O)N(c2nc(-c3ccc(Br)cc3)cs2)C1 [Example 39, 3-[4-(4-Bromophenyl)-1,3-thiazol-2-yl]-5,5-dimethyl-1,3-oxazinan-2-one]
- IC50 [1]: 1370 nM
- melting point: 169 to 171 °C

SMILES: CC(C)C1COC(=O)N1c1nc(-c2ccc(C#N)cc2)cs1 (stereo not drawn) [Example 43, 4-[2-(4-Isopropyl-2-oxo-1,3-oxazolidin-3-yl)-1,3-thiazol-4-yl]benzonitrile]
- IC50 [1]: 21.9 nM
- melting point: 126 to 128 °C

SMILES: N#Cc1ccc(-c2csc(N3C(=O)OC[C@H]3Cc3ccccc3)n2)cc1 [Example 44, 4-{2-[(4R)-4-Benzyl-2-oxo-1,3-oxazolidin-3-yl]-1,3-thiazol-4-yl}benzonitrile]
- IC50 [1]: 191 nM
- melting point: 174 to 176 °C

SMILES: N#Cc1ccc(-c2csc(N3C(=O)OC[C@H]3c3ccccc3)n2)cc1 [Example 45, 4-{2-[(4R)-2-Oxo-4-phenyl-1,3-oxazolidin-3-yl]-1,3-thiazol-4-yl}benzonitrile]
- IC50 [1]: 166 nM
- melting point: 243 to 245 °C

SMILES: N#Cc1ccc(-c2csc(N3C(=O)OC[C@@H]3c3ccccc3)n2)cc1 [Example 46, 4-{2-[(4S)-2-Oxo-4-phenyl-1,3-oxazolidin-3-yl]-1,3-thiazol-4-yl}benzonitrile]
- IC50 [1]: 194 nM
- melting point: 242 to 244 °C

SMILES: N#Cc1ccc(-c2csc(N3C(=O)OCC34CCCC4)n2)cc1 [Example 47, 4-[2-(2-Oxo-3-oxa-1-azaspiro[4.4]non-1-yl)-1,3-thiazol-4-yl]benzonitrile]
- IC50 [1]: 45.4 nM
- melting point: 196 to 198 °C

SMILES: CC1(C)COC(=O)N1c1nc(-c2cccc(C#N)c2)cs1 [Example 52, 3-[2-(4,4-dimethyl-2-oxo-1,3-oxazolidin-3-yl)-1,3-thiazol-4-yl]benzonitrile]
- inhibition at 3 µM [1]: 95%
- melting point: 181 to 183 °C

SMILES: CCC1(CC)COC(=O)N1c1nc(-c2ccc(C#N)cc2)c(F)s1 [Example 53, 4-[2-(4,4-Diethyl-2-oxo-1,3-oxazolidin-3-yl)-5-fluoro-1,3-thiazol-4-yl]benzonitrile]
- inhibition at 0.003 µM ([1]; % inhibition at 3 nM): 40%
- melting point: 151 to 153 °C

SMILES: N#Cc1ccc(-c2csc(-n3c(=O)oc4ccccc43)n2)cc1 [Example 54, 4-[2-(2-Oxo-1,3-benzoxazol-3(2H)-yl)-1,3-thiazol-4-yl]benzonitrile]
- inhibition at 3 µM [1]: 50%
- melting point: 244 to 245 °C

SMILES: N#Cc1ccc(-c2nc(N3C(=O)OCC34CC4)sc2F)cc1 [Example 55, 4-[5-Fluoro-2-(5-oxo-6-oxa-4-azaspiro[2.4]hept-4-yl)-1,3-thiazol-4-yl]benzonitrile]
- IC50 [1]: 41.9 nM
- melting point: 222 to 224 °C

SMILES: Cc1sc(N2C(=O)OCC2(C)C)nc1-c1ccc(Br)cc1 [Example 56, 3-[4-(4-Bromophenyl)-5-methyl-1,3-thiazol-2-yl]-4,4-dimethyl-1,3-oxazolidin-2-one]
- IC50 [1]: 437 nM
- melting point: 175 to 176.5 °C

SMILES: Cc1sc(N2C(=O)OCC2(C)C)nc1-c1ccc(C#N)cc1 [Example 57, 4-[2-(4,4-Dimethyl-2-oxo-1,3-oxazolidin-3-yl)-5-methyl-1,3-thiazol-4-yl]benzonitrile]
- IC50 [1]: 101 nM
- melting point: 192.5 to 193 °C

SMILES: CC1(C)COC(=O)N1c1nc(-c2sc(C#N)cc2Br)cs1 [Example 59, 4-Bromo-5-[2-(4,4-dimethyl-2-oxo-1,3-oxazolidin-3-yl)-1,3-thiazol-4-yl]thiophene-2-carbonitrile]
- IC50 [1]: 99 nM
- melting point: 230 to 234 °C

SMILES: CC1(C)COC(=O)N1c1nc(-c2ccc(C#N)s2)cs1 [Example 60, 5-[2-(4,4-dimethyl-2-oxo-1,3-oxazolidin-3-yl)-1,3-thiazol-4-yl]thiophene-2-carbonitrile]
- IC50 [1]: 43.5 nM
- melting point: 250 to 251 °C

SMILES: CC1(C)COC(=O)N1c1nc(-c2csc(C#N)c2)cs1 [Example 61, 4-[2-(4,4-Dimethyl-2-oxo-1,3-oxazolidin-3-yl)-1,3-thiazol-4-yl]thiophene-2-carbonitrile]
- IC50 [1]: 37.8 nM
- melting point: 249 to 251.5 °C

SMILES: CC1OC(=O)N(c2nc(-c3ccc(C#N)cc3)cs2)C1(C)C (stereo not drawn) [Example 62, 4-[2-(4,4,5-Trimethyl-2-oxo-1,3-oxazolidin-3-yl)-1,3-thiazol-4-yl]benzonitrile]
- IC50 [1]: 1.8 nM
- melting point: 166 to 167 °C

SMILES: CC1(C)COC(=N)N1c1nc(-c2ccc(C#N)cc2)cs1 [Example 63, 4-[2-(2-imino-4,4-dimethyl-1,3-oxazolidin-3-yl)-1,3-thiazol-4-yl]benzonitrile]
- IC50 [1]: 53.4 nM
- melting point: 158 to 161 °C

SMILES: O=C1OCC(CC(F)(F)F)N1c1nc(-c2ccc(Br)cc2)cs1 (stereo not drawn) [Example 67, 3-[4-(4-Bromophenyl)-1,3-thiazol-2-yl]-4-(2,2,2-trifluoroethyl)-1,3-oxazolidin-2-one]
- IC50 [1]: 95.5 nM
- melting point: 163 to 165 °C

SMILES: N#Cc1ccc(-c2csc(N3C(=O)OC[C@@H]3CC(F)(F)F)n2)cc1 [Example 68, 4-{2-[(4S)-2-Oxo-4-(2,2,2-trifluoroethyl)-1,3-oxazolidin-3-yl]-1,3-thiazol-4-yl}benzonitrile]
- IC50 [1]: 29.1 nM
- melting point: 235 to 238 °C

SMILES: N#Cc1ccc(-c2csc(N3C(=O)OC[C@H]3CC(F)(F)F)n2)cc1 [Example 69, 4-{2-[(4R)-2-Oxo-4-(2,2,2-trifluoroethyl)-1,3-oxazolidin-3-yl]-1,3-thiazol-4-yl}benzonitrile]
- IC50 [1]: 63.8 nM
- melting point: 235 to 238 °C

SMILES: COC(=O)[C@@H]1COC(=O)N1c1nc(-c2ccc(Br)cc2)cs1 [Example 70, Methyl (4S)-3-[4-(4-bromophenyl)-1,3-thiazol-2-yl]-2-oxo-1,3-oxazolidine-4-carboxylate]
- inhibition at 3 µM [1]: 90%
- melting point: 165 to 167 °C

SMILES: O=C1OC[C@@H](CO)N1c1nc(-c2ccc(Br)cc2)cs1 [Example 71, (4R)-3-[4-(4-Bromophenyl)-1,3-thiazol-2-yl]-4-(hydroxymethyl)-1,3-oxazolidin-2-one]
- IC50 [1]: 565 nM
- melting point: 189 to 192 °C
